Measured values as given in ChEMBL document CHEMBL4507298 (2021).

How the values were obtained:
[1] = molecular target: Leukotriene B4 receptor 1 (Homo sapiens, UniProt Q15722); assay: Binding assay (LTB4R )
[2] = molecular target: 5-hydroxytryptamine receptor 1D (Homo sapiens) (UniProt P28221); assay: 5-HT1D CEREP ligand profiling; conditions: Compound concentration 10.0 uM
[3] = molecular target: 5-hydroxytryptamine receptor 2B (Homo sapiens) (UniProt P41595); assay: 5-HT2B (h) (agonist site/DOI) CEREP ligand profiling; conditions: Compound concentration 10.0 uM
[4] = molecular target: T1, 5-hydroxytryptamine receptor 2C (Homo sapiens) (UniProt P28335); assay: 5-HT2C (h) CEREP ligand profiling; conditions: Compound concentration 10.0 uM
T1 sequence (whole entry): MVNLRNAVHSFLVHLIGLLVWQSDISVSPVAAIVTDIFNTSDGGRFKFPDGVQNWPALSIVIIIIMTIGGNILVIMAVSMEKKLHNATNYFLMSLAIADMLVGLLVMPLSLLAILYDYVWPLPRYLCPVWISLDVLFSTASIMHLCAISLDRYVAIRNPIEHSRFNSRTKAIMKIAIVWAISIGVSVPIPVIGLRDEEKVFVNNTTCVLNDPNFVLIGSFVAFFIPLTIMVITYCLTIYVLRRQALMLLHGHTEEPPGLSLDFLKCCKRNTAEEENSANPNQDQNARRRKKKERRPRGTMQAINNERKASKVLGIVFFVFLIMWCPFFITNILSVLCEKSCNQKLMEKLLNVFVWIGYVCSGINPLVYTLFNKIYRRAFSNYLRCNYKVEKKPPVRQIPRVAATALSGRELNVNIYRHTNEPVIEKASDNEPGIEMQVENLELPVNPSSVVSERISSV

[5] = molecular target: Adenosine receptor A2a (Homo sapiens) (UniProt P29274); assay: A2A (h) CEREP ligand profiling; conditions: Compound concentration 10.0 uM
[6] = molecular target: Adenosine receptor A3 (Homo sapiens) (UniProt P0DMS8); assay: A3 (h) CEREP ligand profiling; conditions: Compound concentration 10.0 uM
[7] = molecular target: Tyrosine-protein kinase ABL1 (Homo sapiens) (UniProt P00519); assay: Abl kinase (h) CEREP ligand profiling; conditions: Compound concentration 10.0 uM
Sequence of Tyrosine-protein kinase ABL1 (Homo sapiens) (P00519 whole entry): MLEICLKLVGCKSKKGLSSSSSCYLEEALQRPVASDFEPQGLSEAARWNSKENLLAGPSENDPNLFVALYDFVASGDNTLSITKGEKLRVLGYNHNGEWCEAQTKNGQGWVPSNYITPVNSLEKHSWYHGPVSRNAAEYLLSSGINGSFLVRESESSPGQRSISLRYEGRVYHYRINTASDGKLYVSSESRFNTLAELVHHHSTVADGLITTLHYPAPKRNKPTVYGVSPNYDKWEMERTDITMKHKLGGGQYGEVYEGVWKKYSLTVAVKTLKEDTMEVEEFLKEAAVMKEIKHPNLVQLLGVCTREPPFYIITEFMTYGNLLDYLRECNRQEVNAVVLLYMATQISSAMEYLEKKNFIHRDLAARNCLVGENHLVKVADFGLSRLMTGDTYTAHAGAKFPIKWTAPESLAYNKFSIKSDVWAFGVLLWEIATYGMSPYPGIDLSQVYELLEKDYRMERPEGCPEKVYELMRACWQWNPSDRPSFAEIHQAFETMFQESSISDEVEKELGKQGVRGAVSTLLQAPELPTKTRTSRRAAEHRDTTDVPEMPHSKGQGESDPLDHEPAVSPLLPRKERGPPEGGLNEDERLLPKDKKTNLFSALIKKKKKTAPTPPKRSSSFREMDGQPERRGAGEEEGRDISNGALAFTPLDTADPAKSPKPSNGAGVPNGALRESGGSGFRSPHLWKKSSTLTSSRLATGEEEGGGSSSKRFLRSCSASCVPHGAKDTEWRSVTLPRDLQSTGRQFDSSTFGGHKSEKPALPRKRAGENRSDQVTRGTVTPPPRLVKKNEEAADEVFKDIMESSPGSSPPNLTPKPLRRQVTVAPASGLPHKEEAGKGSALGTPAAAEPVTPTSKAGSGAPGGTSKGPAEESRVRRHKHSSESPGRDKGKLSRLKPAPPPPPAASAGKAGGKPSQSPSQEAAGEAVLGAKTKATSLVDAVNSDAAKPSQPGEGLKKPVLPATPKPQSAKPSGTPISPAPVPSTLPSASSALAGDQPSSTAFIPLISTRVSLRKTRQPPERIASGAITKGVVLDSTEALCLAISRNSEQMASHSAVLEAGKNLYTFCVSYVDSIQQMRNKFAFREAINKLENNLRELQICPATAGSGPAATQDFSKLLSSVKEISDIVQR

[8] = molecular target: Voltage-gated L-type calcium channel (DHP site) (Homo sapiens, UniProt O60840+Q01668+Q13698+Q13936); assay: Ca2+ channel (L, DHP site) CEREP ligand profiling; format: protein assay; conditions: compound concentration 10 uM
[9] = molecular target: Carbonic anhydrase 2 (Homo sapiens) (UniProt P00918); assay: Carbonic anhydrase II (h) CEREP ligand profiling; conditions: Compound concentration 10.0 uM
CYP2C19 = CYP2C19 (Homo sapiens, UniProt P33261); assay: CYP2C19 inhibition CEREP ligand profiling; conditions: compound concentration 10 uM
[10] = molecular target: Endothelin receptor type B (Homo sapiens) (UniProt P24530); assay: ETB (h) CEREP ligand profiling; conditions: Compound concentration 10.0 uM
[11] = molecular target: Histamine H2 receptor (Homo sapiens) (UniProt P25021); assay: H2 (h) CEREP ligand profiling; conditions: Compound concentration 10.0 uM
[12] = molecular target: Histamine H3 receptor (Homo sapiens) (UniProt Q9Y5N1); assay: H3 (h) CEREP ligand profiling; conditions: Compound concentration 10.0 uM
Sequence of Histamine H3 receptor (Homo sapiens) (Q9Y5N1 whole entry): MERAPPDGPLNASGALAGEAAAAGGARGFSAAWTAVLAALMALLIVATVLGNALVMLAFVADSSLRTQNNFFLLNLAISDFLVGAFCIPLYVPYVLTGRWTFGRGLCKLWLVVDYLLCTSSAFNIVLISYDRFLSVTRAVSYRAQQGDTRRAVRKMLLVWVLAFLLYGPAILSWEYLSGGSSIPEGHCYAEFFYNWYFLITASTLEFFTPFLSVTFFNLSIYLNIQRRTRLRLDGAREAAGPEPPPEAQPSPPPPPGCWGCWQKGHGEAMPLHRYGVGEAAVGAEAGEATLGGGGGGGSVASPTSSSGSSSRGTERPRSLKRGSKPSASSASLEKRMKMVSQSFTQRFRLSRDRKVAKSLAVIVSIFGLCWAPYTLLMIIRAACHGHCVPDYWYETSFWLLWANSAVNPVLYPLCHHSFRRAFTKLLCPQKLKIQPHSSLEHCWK

[13] = molecular target: Kappa-type opioid receptor (Homo sapiens) (UniProt P41145); assay: kappa (KOP) CEREP ligand profiling; conditions: Compound concentration 10.0 uM
Sequence of Kappa-type opioid receptor (Homo sapiens) (P41145 whole entry): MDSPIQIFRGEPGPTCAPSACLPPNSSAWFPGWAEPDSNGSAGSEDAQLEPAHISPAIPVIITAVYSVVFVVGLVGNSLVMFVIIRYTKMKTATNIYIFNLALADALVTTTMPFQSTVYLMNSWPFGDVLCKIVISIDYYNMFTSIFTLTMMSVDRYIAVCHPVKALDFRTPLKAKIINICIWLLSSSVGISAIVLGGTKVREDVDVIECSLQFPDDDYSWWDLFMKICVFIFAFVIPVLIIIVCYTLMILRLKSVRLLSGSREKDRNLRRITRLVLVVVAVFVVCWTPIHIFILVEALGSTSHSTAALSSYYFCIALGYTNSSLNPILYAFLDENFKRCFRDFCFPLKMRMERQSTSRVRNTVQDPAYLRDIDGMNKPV

[14] = molecular target: Muscarinic acetylcholine receptor M3 (Homo sapiens) (UniProt P20309); assay: M3 (h) CEREP ligand profiling; conditions: Compound concentration 10.0 uM
[15] = molecular target: MAO-A (Amine oxidase [flavin-containing] A) (Homo sapiens, UniProt P21397); assay: MAO-A CEREP ligand profiling; conditions: compound concentration 10 uM
[16] = molecular target: Mitogen-activated protein kinase 14 (Homo sapiens) (UniProt Q16539); assay: p38 alpha kinase (h) CEREP ligand profiling; conditions: Compound concentration 10.0 uM
[17] = molecular target: Tyrosine 3-monooxygenase (Homo sapiens) (UniProt P07101); assay: TH CEREP ligand profiling; conditions: Compound concentration 10.0 uM
[18] = molecular target: Tyrosine-protein kinase ZAP-70 (Homo sapiens) (UniProt P43403); assay: ZAP70 kinase (h) CEREP ligand profiling; conditions: Compound concentration 10.0 uM
Sequence of Tyrosine-protein kinase ZAP-70 (Homo sapiens) (P43403 whole entry): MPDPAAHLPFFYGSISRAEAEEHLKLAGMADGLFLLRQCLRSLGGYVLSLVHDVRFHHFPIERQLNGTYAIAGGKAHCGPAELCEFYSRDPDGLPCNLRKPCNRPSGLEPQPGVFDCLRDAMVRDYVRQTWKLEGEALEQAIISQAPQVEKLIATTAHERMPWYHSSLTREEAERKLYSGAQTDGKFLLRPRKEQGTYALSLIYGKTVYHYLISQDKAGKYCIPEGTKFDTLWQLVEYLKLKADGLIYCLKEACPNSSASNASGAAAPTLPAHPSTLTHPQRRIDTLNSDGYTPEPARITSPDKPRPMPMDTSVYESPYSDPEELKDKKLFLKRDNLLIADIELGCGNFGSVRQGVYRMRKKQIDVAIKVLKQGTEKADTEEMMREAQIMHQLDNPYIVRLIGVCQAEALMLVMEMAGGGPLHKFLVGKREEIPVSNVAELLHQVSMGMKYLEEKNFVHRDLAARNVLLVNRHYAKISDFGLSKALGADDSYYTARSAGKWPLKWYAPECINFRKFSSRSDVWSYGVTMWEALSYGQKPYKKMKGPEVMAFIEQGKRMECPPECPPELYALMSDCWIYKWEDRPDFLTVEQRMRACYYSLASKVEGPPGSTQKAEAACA

[19] = molecular target: Protein-tyrosine kinase 6 (Homo sapiens) (UniProt Q13882); conditions: Compound concentration 1000.0 nM
[20] = molecular target: Serine/threonine-protein kinase BRSK1 (Homo sapiens) (UniProt Q8TDC3); conditions: Compound concentration 1000.0 nM
[21] = molecular target: Peripheral plasma membrane protein CASK (Homo sapiens) (UniProt O14936); conditions: Compound concentration 1000.0 nM
[22] = molecular target: Casein kinase I isoform gamma-1 (Homo sapiens) (UniProt Q9HCP0); conditions: Compound concentration 1000.0 nM
Sequence of Casein kinase I isoform gamma-1 (Homo sapiens) (Q9HCP0 whole entry, looked up, canonical isoform): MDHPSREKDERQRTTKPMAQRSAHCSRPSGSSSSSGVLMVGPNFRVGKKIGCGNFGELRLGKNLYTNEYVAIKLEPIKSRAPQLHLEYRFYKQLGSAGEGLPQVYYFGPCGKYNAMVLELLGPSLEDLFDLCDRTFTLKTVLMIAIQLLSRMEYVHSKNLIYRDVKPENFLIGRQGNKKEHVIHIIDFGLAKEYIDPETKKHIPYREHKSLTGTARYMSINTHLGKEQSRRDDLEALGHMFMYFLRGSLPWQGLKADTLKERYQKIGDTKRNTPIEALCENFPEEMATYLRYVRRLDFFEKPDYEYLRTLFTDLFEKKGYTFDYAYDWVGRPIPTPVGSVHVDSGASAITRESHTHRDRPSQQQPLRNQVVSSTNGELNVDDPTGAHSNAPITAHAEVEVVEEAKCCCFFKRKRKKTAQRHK

[23] = molecular target: Dual specificity tyrosine-phosphorylation-regulated kinase 2 (Homo sapiens) (UniProt Q92630); conditions: Compound concentration 1000.0 nM
[24] = molecular target: Ephrin type-B receptor 4 (Homo sapiens) (UniProt P54760); conditions: Compound concentration 1000.0 nM
[25] = molecular target: Receptor tyrosine-protein kinase erbB-3 (Homo sapiens) (UniProt P21860); conditions: Compound concentration 1000.0 nM
[26] = molecular target: Mitogen-activated protein kinase 15 (Homo sapiens) (UniProt Q8TD08); conditions: Compound concentration 1000.0 nM
[27] = molecular target: Tyrosine-protein kinase JAK1 (Homo sapiens) (UniProt P23458); conditions: Compound concentration 1000.0 nM
[28] = molecular target: Maternal embryonic leucine zipper kinase (Homo sapiens) (UniProt Q14680); conditions: Compound concentration 1000.0 nM
Sequence of Maternal embryonic leucine zipper kinase (Homo sapiens) (Q14680 whole entry, looked up): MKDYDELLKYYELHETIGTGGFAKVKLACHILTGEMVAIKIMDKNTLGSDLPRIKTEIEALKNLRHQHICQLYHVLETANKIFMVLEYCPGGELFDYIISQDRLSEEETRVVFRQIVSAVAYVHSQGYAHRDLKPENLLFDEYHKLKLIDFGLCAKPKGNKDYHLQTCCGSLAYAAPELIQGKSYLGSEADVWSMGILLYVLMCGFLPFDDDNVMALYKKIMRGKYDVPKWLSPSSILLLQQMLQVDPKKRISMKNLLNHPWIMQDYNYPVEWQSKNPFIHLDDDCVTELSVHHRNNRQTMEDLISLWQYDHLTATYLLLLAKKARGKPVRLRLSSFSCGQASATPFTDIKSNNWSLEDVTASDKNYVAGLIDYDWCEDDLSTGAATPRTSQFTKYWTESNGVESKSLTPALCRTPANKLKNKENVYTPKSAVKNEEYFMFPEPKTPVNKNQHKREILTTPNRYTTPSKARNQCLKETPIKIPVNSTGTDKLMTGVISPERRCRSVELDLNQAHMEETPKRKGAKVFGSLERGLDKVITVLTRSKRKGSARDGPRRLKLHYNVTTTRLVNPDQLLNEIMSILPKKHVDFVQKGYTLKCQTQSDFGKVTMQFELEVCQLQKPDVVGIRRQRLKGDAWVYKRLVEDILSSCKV

[29] = test system: Hepatocyte growth factor receptor (Homo sapiens), P08581 [Y1235D]; conditions: Compound concentration 1000.0 nM
[30] = molecular target: Muscle, skeletal receptor tyrosine-protein kinase (Homo sapiens) (UniProt O15146); conditions: Compound concentration 1000.0 nM
[31] = molecular target: Serine/threonine-protein kinase PAK 3 (Homo sapiens) (UniProt O75914); conditions: Compound concentration 1000.0 nM
[32] = molecular target: Serine/threonine-protein kinase PAK 4 (Homo sapiens) (UniProt O96013); conditions: Compound concentration 1000.0 nM
[33] = molecular target: Serine/threonine-protein kinase PknB (Mycobacterium tuberculosis) (UniProt P9WI81); conditions: Compound concentration 1000.0 nM
[34] = molecular target: Ribosomal protein S6 kinase alpha-3 (Homo sapiens) (UniProt P51812); conditions: Compound concentration 1000.0 nM
[35] = molecular target: Dual specificity testis-specific protein kinase 1 (Homo sapiens) (UniProt Q15569); conditions: Compound concentration 1000.0 nM
[36] = molecular target: Serine/threonine-protein kinase ULK1 (Homo sapiens) (UniProt O75385); conditions: Compound concentration 1000.0 nM
Sequence of Serine/threonine-protein kinase ULK1 (Homo sapiens) (O75385 whole entry): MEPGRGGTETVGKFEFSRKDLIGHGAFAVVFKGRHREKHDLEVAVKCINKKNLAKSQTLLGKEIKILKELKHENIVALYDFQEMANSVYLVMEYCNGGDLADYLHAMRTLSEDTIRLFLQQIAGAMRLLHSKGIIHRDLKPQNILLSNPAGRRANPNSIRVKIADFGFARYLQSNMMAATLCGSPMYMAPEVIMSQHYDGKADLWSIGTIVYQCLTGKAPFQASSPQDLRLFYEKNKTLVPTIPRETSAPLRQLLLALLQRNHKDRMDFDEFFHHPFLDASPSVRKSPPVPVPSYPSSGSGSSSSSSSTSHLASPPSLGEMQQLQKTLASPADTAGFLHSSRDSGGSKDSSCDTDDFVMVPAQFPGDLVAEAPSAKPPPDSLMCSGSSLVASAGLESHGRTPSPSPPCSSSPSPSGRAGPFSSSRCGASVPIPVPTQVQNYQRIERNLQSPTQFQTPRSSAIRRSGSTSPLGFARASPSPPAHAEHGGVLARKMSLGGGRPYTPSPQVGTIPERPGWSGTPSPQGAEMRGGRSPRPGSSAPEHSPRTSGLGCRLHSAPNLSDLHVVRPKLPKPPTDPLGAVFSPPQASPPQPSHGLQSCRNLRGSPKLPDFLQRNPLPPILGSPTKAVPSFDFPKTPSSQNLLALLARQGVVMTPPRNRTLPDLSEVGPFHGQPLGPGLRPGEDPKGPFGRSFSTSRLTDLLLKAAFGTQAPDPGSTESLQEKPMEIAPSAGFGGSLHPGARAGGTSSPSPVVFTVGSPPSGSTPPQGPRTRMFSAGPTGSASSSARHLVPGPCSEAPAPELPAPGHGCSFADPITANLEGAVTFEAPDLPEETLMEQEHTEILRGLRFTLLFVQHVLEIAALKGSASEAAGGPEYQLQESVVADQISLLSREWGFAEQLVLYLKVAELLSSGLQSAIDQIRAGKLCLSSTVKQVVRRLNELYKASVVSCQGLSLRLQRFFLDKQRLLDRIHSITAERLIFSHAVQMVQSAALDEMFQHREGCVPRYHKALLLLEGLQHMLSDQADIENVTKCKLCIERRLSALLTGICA

[37] = molecular target: Serine/threonine-protein kinase ULK3 (Homo sapiens) (UniProt Q6PHR2); conditions: Compound concentration 1000.0 nM
[38] = molecular target: Tyrosine-protein kinase ZAP-70 (Homo sapiens) (UniProt P43403); conditions: Compound concentration 1000.0 nM
[39] = molecular target: Prostaglandin E2 receptor EP2 subtype (Homo sapiens, UniProt P43116); assay: Inhibition of binding to PTGER2

Sequence of Leukotriene B4 receptor 1 (Q15722 whole entry): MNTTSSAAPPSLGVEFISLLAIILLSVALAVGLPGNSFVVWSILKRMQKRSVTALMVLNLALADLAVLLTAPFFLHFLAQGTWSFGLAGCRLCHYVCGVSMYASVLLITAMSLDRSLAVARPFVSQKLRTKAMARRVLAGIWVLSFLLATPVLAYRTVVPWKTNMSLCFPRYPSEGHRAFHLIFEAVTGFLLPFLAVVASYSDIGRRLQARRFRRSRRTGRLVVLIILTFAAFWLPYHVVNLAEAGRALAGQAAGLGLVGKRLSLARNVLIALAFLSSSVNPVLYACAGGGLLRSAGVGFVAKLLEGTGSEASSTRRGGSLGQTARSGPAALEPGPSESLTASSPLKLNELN

Question: Which Ki [1] does the source give for `COc1ccc2cc(OCC3(C(=O)O)CN(C(=O)c4ccc(F)cc4)C3)ccc2c1` [PF-04418948] here?
Answer: Its Ki is 4.8 µM (not active).

Question: And the inhibition [2]?
Answer: The inhibition was -10%.

Question: What about the inhibition [3] of the same compound?
Answer: Its inhibition is 13%.

Question: And the inhibition [4]?
Answer: Its inhibition is 8%.

Question: And the inhibition [5]?
Answer: Its inhibition is -9%.

Question: And the inhibition [6]?
Answer: Its inhibition is -10%.

Question: What about the inhibition [7] of the same compound?
Answer: Its inhibition is 9%.

Question: What about the inhibition at 10 µM [8] of the same compound?
Answer: The inhibition at 10 µM was -3% (not active).

Question: What about the inhibition [9] of the same compound?
Answer: The inhibition was 9%.

Question: And the inhibition at 10 µM (CYP2C19)?
Answer: Its inhibition at 10 µM is 5% (not active).

Question: What about the inhibition [10] of the same compound?
Answer: Its inhibition is -1%.

Question: And the inhibition [11]?
Answer: The inhibition was 3%.

Question: What about the inhibition [12] of the same compound?
Answer: The inhibition was 10%.

Question: What about the inhibition [13] of the same compound?
Answer: The inhibition was 46%.

Question: What about the inhibition [14] of the same compound?
Answer: Its inhibition is 1%.

Question: And the inhibition at 10 µM [15]?
Answer: Its inhibition at 10 µM is 3% (not active).

Question: And the inhibition [16]?
Answer: The inhibition was -1%.

Question: What about the inhibition [17] of the same compound?
Answer: Its inhibition is -10%.

Question: What about the inhibition [18] of the same compound?
Answer: The inhibition was 9%.

Question: What about the residual activity [19] of the same compound?
Answer: The residual activity was 99%.

Question: What about the residual activity [20] of the same compound?
Answer: The residual activity was 85%.

Question: What about the residual activity [21] of the same compound?
Answer: Its residual activity is 91%.

Question: And the residual activity [22]?
Answer: The residual activity was 94%.

Question: And the residual activity [23]?
Answer: The residual activity was 84%.

Question: What about the residual activity [24] of the same compound?
Answer: Its residual activity is 95%.

Question: What about the residual activity [25] of the same compound?
Answer: The residual activity was 89%.

Question: What about the residual activity [26] of the same compound?
Answer: Its residual activity is 74%.

Question: What about the residual activity [27] of the same compound?
Answer: The residual activity was 96%.

Question: What about the residual activity [28] of the same compound?
Answer: Its residual activity is 86%.

Question: And the residual activity [29]?
Answer: The residual activity was 91%.

Question: What about the residual activity [30] of the same compound?
Answer: Its residual activity is 72%.

Question: And the residual activity [31]?
Answer: Its residual activity is 94%.

Question: And the residual activity [32]?
Answer: The residual activity was 94%.

Question: What about the residual activity [33] of the same compound?
Answer: The residual activity was 88%.

Question: And the residual activity [34]?
Answer: The residual activity was 85%.

Question: What about the residual activity [35] of the same compound?
Answer: The residual activity was 98%.

Question: And the residual activity [36]?
Answer: Its residual activity is 92%.

Question: And the residual activity [37]?
Answer: The residual activity was 86%.

Question: And the residual activity [38]?
Answer: The residual activity was 99%.

Question: With `O=C(c1ccc(F)cc1)N1CC(COc2ccc(Br)cc2)(C(=O)O)C1` [PF-04475866] as the compound, how does the IC50 [39] read?
Answer: Its IC50 is 1.3 µM (not active).
